Data reported in US12466827B2, “1,3,4-oxadiazole derivative compounds as histone deacetylase 6 inhibitor, and the pharmaceutical composition comprising the same” (CHONG KUN DANG PHARMACEUTICAL CORP., priority 2020, dated 2025).

Assays:
human recombinant HDAC6 = molecular target: T1, human recombinant HDAC6 (Homo sapiens, UniProt Q9UBN7); test: In vitro HDAC enzyme activity inhibition assay (HDAC6); format: biochemical; conditions: for HDAC6 selectivity (fold): HDAC6 over HDAC1; for IC50: same protocol as the HDAC1 test, human recombinant HDAC6 (Calbiochem)
T1 construct: purchased Calbiochem Inc. 382180
T1 sequence (Q9UBN7 1-1215): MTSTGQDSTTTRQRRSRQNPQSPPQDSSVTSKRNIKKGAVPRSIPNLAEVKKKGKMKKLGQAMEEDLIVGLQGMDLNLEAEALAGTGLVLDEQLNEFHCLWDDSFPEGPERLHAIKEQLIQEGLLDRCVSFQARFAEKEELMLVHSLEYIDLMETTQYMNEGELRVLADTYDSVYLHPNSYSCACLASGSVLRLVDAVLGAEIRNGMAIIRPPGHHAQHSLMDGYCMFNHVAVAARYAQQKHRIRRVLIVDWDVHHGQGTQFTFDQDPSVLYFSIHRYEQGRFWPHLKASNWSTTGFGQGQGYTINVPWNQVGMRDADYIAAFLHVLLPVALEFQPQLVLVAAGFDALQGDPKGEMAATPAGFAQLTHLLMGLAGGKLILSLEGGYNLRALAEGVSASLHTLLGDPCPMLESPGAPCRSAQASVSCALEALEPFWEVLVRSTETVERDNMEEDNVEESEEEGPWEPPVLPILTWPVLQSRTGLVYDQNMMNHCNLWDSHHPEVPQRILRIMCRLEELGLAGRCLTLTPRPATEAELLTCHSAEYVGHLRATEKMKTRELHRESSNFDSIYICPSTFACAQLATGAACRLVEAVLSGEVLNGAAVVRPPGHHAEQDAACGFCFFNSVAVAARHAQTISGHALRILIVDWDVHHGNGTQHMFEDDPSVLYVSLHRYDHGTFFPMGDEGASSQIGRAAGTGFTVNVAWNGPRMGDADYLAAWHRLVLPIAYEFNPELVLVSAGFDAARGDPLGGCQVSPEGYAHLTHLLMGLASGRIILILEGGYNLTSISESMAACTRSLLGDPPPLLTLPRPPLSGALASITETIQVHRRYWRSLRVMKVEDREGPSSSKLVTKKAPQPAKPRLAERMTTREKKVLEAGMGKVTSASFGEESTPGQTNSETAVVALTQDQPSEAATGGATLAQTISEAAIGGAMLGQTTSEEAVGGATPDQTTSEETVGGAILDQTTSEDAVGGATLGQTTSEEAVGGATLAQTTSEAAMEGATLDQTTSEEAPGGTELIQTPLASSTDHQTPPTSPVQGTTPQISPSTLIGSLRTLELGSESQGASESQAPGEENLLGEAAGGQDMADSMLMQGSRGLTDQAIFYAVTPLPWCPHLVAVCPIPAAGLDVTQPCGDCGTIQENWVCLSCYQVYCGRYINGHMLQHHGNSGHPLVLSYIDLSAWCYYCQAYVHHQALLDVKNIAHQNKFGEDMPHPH
Experimental: (§1) In order to confirm the selectivity of the compounds represented by Chemical Formula I of the present invention to HDAC6 through HDAC1 and HDAC6 enzyme activity inhibition experiments, a comparison experiment was performed using the material that has already been developed as a control group.
(§2) HDAC enzyme activity was measured using the HDAC Fluorimetric Drug Discovery Kit (Enzo Life Sciences, Inc., BML-AK511, 516). For the HDAC1 enzyme activity test, human recombinant HDAC1 (BML-SE456) was used as an enzyme source and Fluor de Lys-SIRT1 (BNL-KI177) was used as a substrate. After dispensing 5-fold diluted compounds into a 96-well plate, 0.3 μg of enzyme and 10 μM substrate were added to each well of the plate and allowed to react at 30° C. for 60 minutes. Next, Fluor de Lys Developer II (BML-KI176) was added and reacted for 30 minutes to complete the reaction, and then the fluorescence values (Ex 360, Em 460) were measured using a multi-plate reader (Flexstation 3, Molecular Device). The HDAC6 enzymes were tested using human recombinant HDAC6 (382180) from Calbiochem Inc., according to the same protocol as the HDAC1 enzyme activity test method. With respect to the final result values, respective IC50 values were calculated using GraphPad Prism 4.0 program, and results thereof were summarized in Table 4 below.

human recombinant HDAC1 = molecular target: T2, human recombinant HDAC1 (Homo sapiens, UniProt Q13547); test: In vitro HDAC enzyme activity inhibition assay (HDAC1); format: biochemical; conditions: Fluor de Lys-SIRT1 substrate 10 μM, 30° C., 60 minutes, fluorescence
T2 construct: purchased Enzo Life Sciences, Inc. BML-SE456
T2 sequence (Q13547 whole entry): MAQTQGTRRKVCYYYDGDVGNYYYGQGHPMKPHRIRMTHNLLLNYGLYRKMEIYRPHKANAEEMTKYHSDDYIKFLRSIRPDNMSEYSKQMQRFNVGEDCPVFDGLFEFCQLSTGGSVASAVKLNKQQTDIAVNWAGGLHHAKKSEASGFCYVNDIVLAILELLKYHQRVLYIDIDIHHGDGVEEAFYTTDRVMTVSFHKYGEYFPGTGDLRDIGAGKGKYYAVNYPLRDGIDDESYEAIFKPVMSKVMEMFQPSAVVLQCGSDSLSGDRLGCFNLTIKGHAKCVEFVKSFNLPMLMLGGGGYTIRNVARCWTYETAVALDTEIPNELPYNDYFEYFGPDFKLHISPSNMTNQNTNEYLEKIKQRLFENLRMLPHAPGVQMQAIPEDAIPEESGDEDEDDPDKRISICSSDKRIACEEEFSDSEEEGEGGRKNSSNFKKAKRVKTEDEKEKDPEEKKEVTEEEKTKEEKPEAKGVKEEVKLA
Experimental: as §1, §2

HDAC6 selectivity (fold) (human recombinant HDAC6)	IC50 (human recombinant HDAC6) [nM]	IC50 (human recombinant HDAC1) [nM]	SMILES
715	69.9	> 50000	O=S(=O)(C1CCN(C2COC2)CC1)N(Cc1cn2ccc(-c3nnc(C(F)F)o3)cc2n1)c1cccc(F)c1 [Compound 4241]
488	102	> 50000	CC(C)N1CCN(S(=O)(=O)N(Cc2cn3ccc(-c4nnc(C(F)F)o4)cc3n2)c2cccc(F)c2)CC1 [Compound 4299, N-((7-(5-(difluoromethyl)-1,3,4-oxadiazol-2-yl)imidazo[1,2-a]pyridin-2-yl)methyl)-N-(3-fluorophenyl)-4-isopropylpiperazine-1-sulfonamide]
167	299	> 50000	O=S(=O)(N1CCN(C2CCCCC2)CC1)N(Cc1cn2ccc(-c3nnc(C(F)F)o3)cc2n1)c1ccccc1 [Compound 4262, 4-cyclohexyl-N-((7-(5-(difluoromethyl)-1,3,4-oxadiazol-2-yl)imidazo[1,2-a]pyridin-2-yl)methyl)-N-phenylpiperazine-1-sulfonamide]
588	85	> 50000	O=S(=O)(N1CCN(C2COC2)CC1)N(Cc1cn2ccc(-c3nnc(C(F)F)o3)cc2n1)c1ccccc1 [Compound 4261, N-((7-(5-(difluoromethyl)-1,3,4-oxadiazol-2-yl)imidazo[1,2-a]pyridin-2-yl)methyl)-4-(oxetan-3-yl)-N-phenylpiperazine-1-sulfonamide]
455	110	> 50000	COC(=O)N1CCC(S(=O)(=O)N(Cc2cn3ccc(-c4nnc(C(F)F)o4)cc3n2)c2cccc(F)c2)CC1 [Compound 4252, methyl 4-(N-((7-(5-(difluoromethyl)-1,3,4-oxadiazol-2-yl)imidazo[1,2-a]pyridin-2-yl)methyl)-N-(3-fluorophenyl)sulfamoyl)piperidine-1-carboxylate]
681	73.4	> 50000	O=C(C1COC1)N1CCN(S(=O)(=O)N(Cc2cn3ccc(-c4nnc(C(F)F)o4)cc3n2)c2cccc(F)c2)CC1 [Compound 4310, N-((7-(5-(difluoromethyl)-1,3,4-oxadiazol-2-yl)imidazo[1,2-a]pyridin-2-yl)methyl)-N-(3-fluorophenyl)-4-(oxetane-3-carbonyl)piperazine-1-sulfonamide]
431	116	> 50000	CCC(=O)N1CCN(S(=O)(=O)N(Cc2cn3ccc(-c4nnc(C(F)F)o4)cc3n2)c2ccccc2)CC1 [Compound 4266, N-((7-(5-(difluoromethyl)-1,3,4-oxadiazol-2-yl)imidazo[1,2-a]pyridin-2-yl)methyl)-N-phenyl-4-propionylpiperazine-1-sulfonamide]
437	114	> 50000	O=S(=O)(N1CCN(C2CCC(F)(F)CC2)CC1)N(Cc1cn2ccc(-c3nnc(C(F)F)o3)cc2n1)c1cccc(F)c1 [Compound 4305, 4-(4,4-difluorocyclohexyl)-N-((7-(5-(difluoromethyl)-1,3,4-oxadiazol-2-yl)imidazo[1,2-a]pyridin-2-yl)methyl)-N-(3-fluorophenyl)piperazine-1-sulfonamide]
980	51	> 50000	O=C(CO)N1CCC(S(=O)(=O)N(Cc2cn3ccc(-c4nnc(C(F)F)o4)cc3n2)c2cccc(F)c2)CC1 [Compound 4247, N-((7-(5-(difluoromethyl)-1,3,4-oxadiazol-2-yl)imidazo[1,2-a]pyridin-2-yl)methyl)-N-(3-fluorophenyl)-1-(2-hydroxyacetyl)piperidine-4-sulfonamide]
215	232	> 50000	CS(=O)(=O)N1CCN(S(=O)(=O)N(Cc2cn3ccc(-c4nnc(C(F)F)o4)cc3n2)c2ccccc2)CC1 [Compound 4271, N-((7-(5-(difluoromethyl)-1,3,4-oxadiazol-2-yl)imidazo[1,2-a]pyridin-2-yl)methyl)-4-(methylsulfonyl)-N-phenylpiperazine-1-sulfonamide]
430	116	> 50000	O=S(=O)(C1CCN(c2ccccn2)CC1)N(Cc1cn2ccc(-c3nnc(C(F)F)o3)cc2n1)c1cccc(F)c1 [Compound 4254, N-((7-(5-(difluoromethyl)-1,3,4-oxadiazol-2-yl)imidazo[1,2-a]pyridin-2-yl)methyl)-N-(3-fluorophenyl)-1-(pyridin-2-yl)piperidine-4-sulfonamide]
653	76.6	> 50000	CC(C)N1CCC(S(=O)(=O)N(Cc2cn3ccc(-c4nnc(C(F)F)o4)cc3n2)c2cccc(F)c2)CC1 [Compound 4238, N-((7-(5-(difluoromethyl)-1,3,4-oxadiazol-2-yl)imidazo[1,2-a]pyridin-2-yl)methyl)-N-(3-fluorophenyl)-1-isopropylpiperidine-4-sulfonamide]
631	79.2	> 50000	CCN1CCN(S(=O)(=O)N(Cc2cn3ccc(-c4nnc(C(F)F)o4)cc3n2)c2cccc(F)c2)CC1 [Compound 4298, N-((7-(5-(difluoromethyl)-1,3,4-oxadiazol-2-yl)imidazo[1,2-a]pyridin-2-yl)methyl)-4-ethyl-N-(3-fluorophenyl)-piperazine-1-sulfonamide]
364	137	> 50000	CC(=O)N1CCC(S(=O)(=O)N(Cc2cn3ccc(-c4nnc(C(F)F)o4)cc3n2)c2ccccc2)CC1 [Compound 4221, 1-acetyl-N-((7-(5-(difluoromethyl)-1,3,4-oxadiazol-2-yl)imidazo[1,2-a]pyridin-2-yl)methyl)-N-phenylpiperidine-4-sulfonamide]
530	94.4	> 50000	CS(=O)(=O)N1CCC(S(=O)(=O)N(Cc2cn3ccc(-c4nnc(C(F)F)o4)cc3n2)c2ccccc2)CC1 [Compound 4225, N-((7-(5-(difluoromethyl)-1,3,4-oxadiazol-2-yl)imidazo[1,2-a]pyridin-2-yl)methyl)-1-(methylsulfonyl)-N-phenylpiperidine-4-sulfonamide]
500	100	> 50000	CC(C)N1CCN(S(=O)(=O)N(Cc2cn3ccc(-c4nnc(C(F)F)o4)cc3n2)c2ccccc2)CC1 [Compound 4258, N-((7-(5-(difluoromethyl)-1,3,4-oxadiazol-2-yl)imidazo[1,2-a]pyridin-2-yl)methyl)-4-isopropyl-N-phenylpiperazine-1-sulfonamide]
320	156	> 50000	O=S(=O)(C1CCN(C2CCC(F)(F)CC2)CC1)N(Cc1cn2ccc(-c3nnc(C(F)F)o3)cc2n1)c1ccccc1 [Compound 4220, 1-(4,4-difluorocyclohexyl)-N-((7-(5-(difluoromethyl)-1,3,4-oxadiazol-2-yl)imidazo[1,2-a]pyridin-2-yl)methyl)-N-phenylpiperidine-4-sulfonamide]
